One experiment addresses T1, matrix metalloproteinase-2 (Homo sapiens, UniProt P08253).
T1 construct: purchased not specified for the assay (Sigma Co. recombinant enzyme or a component of the Shanghai Easy Biotech Co. ELISA kit)
T1 sequence (P08253 110-660): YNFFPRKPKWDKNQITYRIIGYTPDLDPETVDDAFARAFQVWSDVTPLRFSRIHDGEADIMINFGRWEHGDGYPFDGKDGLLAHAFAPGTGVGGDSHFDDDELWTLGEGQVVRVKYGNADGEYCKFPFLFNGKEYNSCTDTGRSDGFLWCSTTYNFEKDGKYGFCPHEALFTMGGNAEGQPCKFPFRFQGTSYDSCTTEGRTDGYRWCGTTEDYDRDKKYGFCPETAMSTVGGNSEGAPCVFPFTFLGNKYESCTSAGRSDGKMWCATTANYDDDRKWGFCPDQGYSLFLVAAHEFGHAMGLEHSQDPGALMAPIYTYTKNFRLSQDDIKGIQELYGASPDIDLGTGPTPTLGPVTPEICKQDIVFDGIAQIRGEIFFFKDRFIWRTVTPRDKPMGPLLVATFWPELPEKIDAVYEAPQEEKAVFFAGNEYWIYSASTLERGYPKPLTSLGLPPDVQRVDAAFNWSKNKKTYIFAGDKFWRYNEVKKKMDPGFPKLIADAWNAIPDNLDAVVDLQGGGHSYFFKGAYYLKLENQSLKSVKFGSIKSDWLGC
Briefly: Matrix metalloproteinase-2 inhibitory assay. It is filed as biochemical. Conditions: MMP-2 inhibition, 30 min at 37°C, absorbance 450 nm. On the procedure: The inhibitory effects of binding ligands were evaluated as below. […] Test components were dissolved in the buffer to yield a gradient of concentrations between 1 and 200 μM. A total of 50 μl of test components and 100 μl of the enzyme solution were added to a 96-well plate and incubated for 30 min at 37°C. Afterward, the solution in the 96-well plate was discarded. The plate was dried on water adsorbing paper. A total of 200 μl of wash solution was added to each well and incubated for 30 s. Again, the solution in the 96-well plate was abandoned. The plate was dried on water adsorbing paper. This step was carried out five times. A total of 50 μl aliquots of solution A and 50 μl aliquots of solution B were added to each well and kept in a dark place for 15 min. As a result, 50 μl aliquots of stopping solution were pipetted into each well. The plate was monitored at the absorbance of 450 nm by using an automatic microplate reader.
The compound `O=C(O[C@@H]1O[C@@H]2COC(=O)c3cc(O)c(O)c(O)c3-c3c(cc(O)c(O)c3O)C(=O)O[C@H]([C@H]1O)[C@@H]2O)c1cc(O)c(O)c(O)c1` [Corilagin] displayed an IC50 of 28.6 ± 2.83 µM. Compound `O=c1oc2c(O)c(O)cc3c(=O)oc4c(O)c(O)cc1c4c23` [Ellagic acid, reference compound] had an IC50 of 37.8 ± 1.96 µM. Take `C[C@@H]1CC[C@]2(C(=O)O[C@@H]3O[C@H](CO)[C@@H](O)[C@H](O)[C@H]3O)CC[C@]3(C)C(=CC[C@@H]4[C@@]5(C)C[C@@H](O)[C@@H](O)C(C)(C)[C@@H]5CC[C@]43C)[C@@H]2[C@]1(C)O` [Kajiichigoside F1]: the IC50 worked out at 22 ± 2.15 µM. The same measure, in the same setting: the same measure for `CC1(C)CC[C@]2(C(=O)O)CC[C@]3(C)C(=CC[C@@H]4[C@@]5(C)C[C@H](O)[C@H](O)[C@@](C)(C(=O)O)[C@@H]5CC[C@]43C)[C@@H]2C1` [Medicogenic acid, Medicagenic acid]: 64.1 ± 13.6 µM; for `C[C@@H]1CC[C@]2(C(=O)O[C@@H]3O[C@H](CO)[C@@H](O)[C@H](O)[C@H]3O)CC[C@]3(C)C(=CC[C@@H]4[C@@]5(C)C[C@@H](O)[C@H](O)[C@@](C)(CO)[C@@H]5CC[C@]43C)[C@@H]2[C@]1(C)O` [Niga-ichigoside F1]: 20.1 ± 1.55 µM; for `C[C@@H]1CC[C@]2(C(=O)O[C@@H]3O[C@H](CO)[C@@H](O)[C@H](O)[C@H]3O)CC[C@]3(C)C(=CC[C@@H]4[C@@]5(C)C[C@@H](O)C(=O)C(C)(C)[C@@H]5CC[C@]43C)[C@@H]2[C@]1(C)O` [Potentillanoside A]: 25.5 ± 3.01 µM. Regarding `C=C1[C@H]2C3=CC[C@@H]4[C@@]5(C)C[C@@H](O)[C@H](O)[C@@](C)(CO)[C@@H]5CC[C@@]4(C)[C@]3(C)CC[C@@]2(C(=O)O[C@@H]2O[C@H](CO)[C@@H](O)[C@H](O)[C@H]2O)CC[C@H]1C` [Quadranoside VIII], the IC50 turned out to be 25.9 ± 5.66 µM.

`C[C@@H]1CC[C@]2(C(=O)O[C@@H]3O[C@H](CO)[C@@H](O)[C@H](O)[C@H]3O)CC[C@]3(C)C(=CC[C@@H]4[C@@]5(C)C[C@@H](O)[C@H](O)C(C)(C)[C@@H]5CC[C@]43C)[C@@H]2[C@]1(C)O` [Rosamultin] gave an IC50 of 20.7 ± 2.06 µM.

The compound `CC1=C2[C@H](/C=C(\C)C(=O)O)CC[C@@H](C)[C@H]2CC1` [Valerenic acid] showed an IC50 of 82.5 ± 8.87 µM. Same read-out and setting: under `COC(=O)[C@@]1(C)CC[C@]2(C(=O)O[C@@H]3O[C@H](CO)[C@@H](O)[C@H](O)[C@H]3O)CC[C@]3(C)C(=CC[C@@H]4[C@@]5(C)CC[C@H](O)[C@@](C)(CO)[C@@H]5CC[C@]43C)[C@@H]2C1` [Zebirioside O] stands 23.2 ± 4.49 µM; under Oreganol A, 30.8 ± 2.13 µM; under Peduncloside, 23.2 ± 2.53 µM.

A further experiment deals with T2, MS@PEI@QDs@PEI@MMP-2 (immobilized matrix metalloproteinase-2) (Homo sapiens, UniProt P08253).
T2 construct: purchased Sigma Co; host or cells: HEK 293 cells
T2 sequence (P08253 110-660): T1 sequence (P08253 110-660)
Briefly: Microfluidic chip-based ligand fishing. It is filed as binding. Conditions: dissociated solution after microfluidic chip-based ligand fishing.
Description: All ligand fishing experiments were performed on the microfluidic chip system. The microfluidic chip system consisted of six modules, namely, a microscope stand, a light-emitting diode surface light source, a charge-coupled device (CCD) camera, a temperature controller, an automated x-y-z translation stage (Wuhan Mesovision Biotechnology Co.) for controlling the movement of the microfluidic chip, and four syringe pumps (Baoding Lange Constant Current Pump Co.). Before use, the microfluidic chip was first treated with 1% tween 80 in n-hexadecane (v/v) through port a to make the whole chip surface hydrophobic. […] Under the monitoring of the top-view CCD camera, MS@PEI@QDs@PEI@MMP-2 were infused into the upper left port b, whereas extract of R. roxburghii was infused into upper right port c at an appropriate flow rate to allow the solution to meet the MS@PEI@QDs@PEI @MMP-2 at the junction. The mixture was incubated in the channel for a period. Then, 500 μl aliquots of wash solvent (PBS buffer) were infused into the port d. At the turning point, a small ring magnet trapped the MS@PEI@QDs@PEI@MMP-2. […] The linearity was analyzed by plotting the peak area of the ellagic acid against a series of concentrations (0.009–1.00 mg·ml^−1). The lower limit of quantification was determined as the analytical concentration at an S/N ratio of 10. […] The UV spectra were monitored at 254 nm. […]
The compound `CNC(=O)[C@H](Cc1ccccc1)NC(=O)[C@H](CC(C)C)[C@H](CSc1cccs1)C(=O)NO` [Batimastat] returned an extraction yield of 76.6%.

The values above are taken from publication PMC9046974, “Construction of a Microfluidic Platform With Core-Shell CdSSe@ZnS Quantum Dot-Encoded Superparamagnetic Iron Oxide Microspheres for Screening and Locating Matrix Metalloproteinase-2 Inhibitors From Fruits of Rosa roxburghii” (Frontiers in Nutrition, 2022).
